PubChem BioAssay AID330 (DTP/NCI, 2004)
Where “and” joins values, the source holds several entries; their conditions need not be identical. Equal entries are not always repeated. Toxic doses and inconclusive results are not listed. Rule for the calls: active = survival T/C of 150% or more; inactive = T/C below 125% in these data.

Tested on: P388 leukemia ip, CD2F1 mice, survival T/C
Assay: NCI In Vivo Anticancer Drug Screen. Data for tumor model P388 Leukemia (intraperitoneal) in CD2F1 (CDF1) mice
Settings: endpoint: median survival time, higher = longer survival
In short: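 Mice carrying the transplanted tumor received test compound or vehicle. Survival was recorded in each group, and the value is the treated-group measurement divided by that of the vehicle-treated control group.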

[1] = dose: 12.5 mg/kg/injection, schedule: Q04DX002 (ip), vehicle: saline with Tween-80
[2] = dose: 50.0 mg/kg/injection, schedule: Q01DX009 (ip), vehicle: saline with Tween-80
[3] = dose: 100.0 mg/kg/injection, schedule: Q01DX009 (ip), vehicle: saline with Tween-80
[4] = dose: 200.0 mg/kg/injection, schedule: Q01DX009 (ip), vehicle: saline with Tween-80
[5] = dose: 25.0 mg/kg/injection, schedule: Q01DX009 (ip), vehicle: saline with Tween-80
[6] = dose: 50.0 mg/kg/injection, schedule: Q01DX005 (ip), vehicle: saline with Tween-80
[7] = dose: 100.0 mg/kg/injection, schedule: Q01DX005 (ip), vehicle: saline with Tween-80
[8] = dose: 200.0 mg/kg/injection, schedule: Q01DX005 (ip), vehicle: saline with Tween-80
[9] = dose: 50.0 mg/kg/injection, schedule: Q01DX005 (ip), vehicle: Klucel (hydroxypropylcellulose) (HPC)
[10] = dose: 100.0 mg/kg/injection, schedule: Q01DX005 (ip), vehicle: Klucel (hydroxypropylcellulose) (HPC)
[11] = dose: 50.0 mg/kg/injection, schedule: Q01DX009 (ip), vehicle: saline
[12] = dose: 100.0 mg/kg/injection, schedule: Q01DX009 (ip), vehicle: saline
[13] = dose: 200.0 mg/kg/injection, schedule: Q01DX009 (ip), vehicle: saline
[14] = dose: 100.0 mg/kg/injection, schedule: Q04DX002 (ip), vehicle: saline with Tween-80
[15] = dose: 200.0 mg/kg/injection, schedule: Q04DX002 (ip), vehicle: saline with Tween-80
[16] = dose: 400.0 mg/kg/injection, schedule: Q04DX002 (ip), vehicle: saline with Tween-80
[17] = dose: 100.0 mg/kg/injection, schedule: Q01DX001 (ip), vehicle: saline with Tween-80
[18] = dose: 200.0 mg/kg/injection, schedule: Q01DX001 (ip), vehicle: saline with Tween-80
[19] = dose: 400.0 mg/kg/injection, schedule: Q01DX001 (ip), vehicle: saline with Tween-80
[20] = dose: 200.0 mg/kg/injection, schedule: Q01DX005 (ip), vehicle: Klucel (hydroxypropylcellulose) (HPC)
[21] = dose: 6.25 mg/kg/injection, schedule: Q01DX009 (ip), vehicle: saline
[22] = dose: 12.5 mg/kg/injection, schedule: Q01DX009 (ip), vehicle: saline
[23] = dose: 25.0 mg/kg/injection, schedule: Q01DX009 (ip), vehicle: saline
[24] = dose: 100.0 mg/kg/injection, schedule: Q04DX003 (ip), vehicle: saline with Tween-80

Measured: T/C

CC(C)CCCCCc1ccc(OCCOc2ccc(C(=O)Nc3ccc(S(=O)(=O)F)cc3N)cc2)cc1
inactive: dose: 50.0 mg/kg/injection, schedule: Q04DX003 (ip), vehicle: saline sonified 100 % of control | dose: 100.0 mg/kg/injection, schedule: Q04DX003 (ip), vehicle: saline sonified 100 % of control | dose: 200.0 mg/kg/injection, schedule: Q04DX003 (ip), vehicle: saline sonified 90 % of control

CC(C)=CCCC(C)(O)C1CC=C(C)CC1 (configuration not stated)
inactive: dose: 20.0 mg/kg/injection, schedule: Q01DX005 (ip), vehicle: Klucel (hydroxypropylcellulose) (HPC) 95 % of control | dose: 40.0 mg/kg/injection, schedule: Q01DX005 (ip), vehicle: Klucel (hydroxypropylcellulose) (HPC) 95 % of control | dose: 80.0 mg/kg/injection, schedule: Q01DX005 (ip), vehicle: Klucel (hydroxypropylcellulose) (HPC) 98 % of control | dose: 160.0 mg/kg/injection, schedule: Q01DX005 (ip), vehicle: Klucel (hydroxypropylcellulose) (HPC) 98 % of control

C/C(=N\O)c1ccccc1N=Nc1ccc(N(CCCl)CCCl)cc1C
inactive: dose: 50.0 mg/kg/injection, schedule: Q01DX001 (ip), vehicle: Klucel (hydroxypropylcellulose) (HPC) 100 % of control | dose: 100.0 mg/kg/injection, schedule: Q01DX001 (ip), vehicle: Klucel (hydroxypropylcellulose) (HPC) 98 % of control | dose: 200.0 mg/kg/injection, schedule: Q01DX001 (ip), vehicle: Klucel (hydroxypropylcellulose) (HPC) 104 % of control

O=C1NC(=O)C2(CCCC2)c2ccncc21
inactive: dose: 6.25 mg/kg/injection, schedule: Q04DX002 (ip), vehicle: saline with Tween-80 96 % of control | [1] 96 % of control

[Br][Pt+2][Br].[NH-]C(c1ccccc1)C([NH-])c1ccccc1 (configuration not stated)
inactive: [1] 112 % of control

CC(C)(C)N(O)c1ccc(P(=O)(c2ccccc2)c2ccccc2)cc1
inactive: [2] 99 % of control | [3] 99 % of control | [4] 99 % of control

CCCCOCN(COCCCC)C(C)Cc1ccccc1 (configuration not stated)
inactive: [5] 120 % of control

N#Cc1c(C(=O)NN)c2c(-c3ccc4ccccc4c3)n[nH]c(=O)c2[nH]c1=O
inactive: [6] 91 % of control | [7] 95 % of control | [8] 86 % of control

Clc1nc(Cl)nc(Nc2ccc(-c3cc4ccc(-c5ncc[nH]5)cc4[nH]3)cc2)n1
inactive: dose: 60.0 mg/kg/injection, schedule: Q01DX005 (ip), vehicle: Klucel (hydroxypropylcellulose) (HPC) 100 % of control | dose: 120.0 mg/kg/injection, schedule: Q01DX005 (ip), vehicle: Klucel (hydroxypropylcellulose) (HPC) 100 % of control | dose: 240.0 mg/kg/injection, schedule: Q01DX005 (ip), vehicle: Klucel (hydroxypropylcellulose) (HPC) 105 % of control

O=[N+]([O-])c1ccccc1N/N=C\c1c(Cl)[nH]c2ccccc12
inactive: [9] 90 % of control | [10] 95 % of control | dose: 100.0 mg/kg/injection, schedule: Q04DX002 (ip), vehicle: Klucel (hydroxypropylcellulose) (HPC) 90 % of control | dose: 200.0 mg/kg/injection, schedule: Q04DX002 (ip), vehicle: Klucel (hydroxypropylcellulose) (HPC) 91 % of control | dose: 400.0 mg/kg/injection, schedule: Q04DX002 (ip), vehicle: Klucel (hydroxypropylcellulose) (HPC) 95 % of control

Cc1ccc(C)n1-c1ccsc1C(=O)NNC(=O)C(Cl)(Cl)Cl
inactive: dose: 7.5 mg/kg/injection, schedule: Q01DX005 (ip), vehicle: Klucel (hydroxypropylcellulose) (HPC) 102 % of control | dose: 15.0 mg/kg/injection, schedule: Q01DX005 (ip), vehicle: Klucel (hydroxypropylcellulose) (HPC) 101 % of control | dose: 30.0 mg/kg/injection, schedule: Q01DX005 (ip), vehicle: Klucel (hydroxypropylcellulose) (HPC) 111 % of control

O=c1oc2ccccc2c(O)c1C(c1ccc2c(c1)OCO2)c1c(O)c2ccccc2oc1=O
inactive: dose: 15.0 mg/kg/injection, schedule: Q01DX005 (ip), vehicle: saline with Tween-80 98 % of control | dose: 30.0 mg/kg/injection, schedule: Q01DX005 (ip), vehicle: saline with Tween-80 96 % of control

O=C(NC(=NC(=Nc1ccc(Cl)cc1)c1ccccc1)c1ccccc1)c1ccccc1
inactive: [2] 92 % of control | [3] 95 % of control | [4] 99 % of control

C=C1C(=O)OC2/C=C(\C)C(O)CCC(C)(O)CC(OC(=O)/C(C)=C/C)C12 (configuration not stated)
inactive: dose: 7.5 mg/kg/injection, schedule: Q01DX009 (ip), vehicle: saline with Tween-80 104 % of control | dose: 15.0 mg/kg/injection, schedule: Q01DX009 (ip), vehicle: saline with Tween-80 98 % of control | dose: 30.0 mg/kg/injection, schedule: Q01DX009 (ip), vehicle: saline with Tween-80 104 % of control | dose: 60.0 mg/kg/injection, schedule: Q01DX009 (ip), vehicle: saline with Tween-80 108 % of control

CC(=O)c1ccccc1N=Nc1ccc(N(CCCl)CCCl)cc1C
inactive: [5] 98 % of control | [2] 104 % of control and 108 % of control | [3] 96 % of control | [4] 123 % of control

C1CCc2nc3c(nc2C1)CCCC3
inactive: [6] 101 % of control | [7] 101 % of control | [8] 92 % of control

COc1cc2cc3c4cc(OC)c(OC)cc4cc[n+]3c(CCC(=O)O)c2cc1OC
inactive: [3] 96 % of control | [4] 96 % of control | dose: 400.0 mg/kg/injection, schedule: Q01DX009 (ip), vehicle: saline with Tween-80 94 % of control

CC(NC(=O)C(N)Cc1ccc(O)cc1)C(=O)NCC(=O)N(C)C(Cc1ccccc1)C(=O)NC(CO)CCS(C)=O (configuration not stated)
inactive: [11] 115 % of control | [12] 95 % of control | [13] 105 % of control

C1=CC2C1C1OC1C1OC21 (configuration not stated)
inactive: [14] 101 % of control | [15] 100 % of control | [16] 101 % of control

Cc1c(NC(=O)CCCl)c(=O)oc2c(C)c3occc(=O)c3cc12
inactive: [17] 100 % of control | [18] 99 % of control | [19] 90 % of control

COCCCOC(=O)Oc1ccc(CC(N)C(=O)O)cc1 (configuration not stated)
inactive: [9] 99 % of control | [10] 99 % of control | [20] 96 % of control

Cn1c(=O)c(CCCC(=O)O)nc2ccccc21
inactive: [14] 97 % of control | [15] 102 % of control | [16] 107 % of control

Cn1ncc2c(N)cc(=O)[nH]c21
inactive: [17] 101 % of control | [18] 94 % of control | [19] 104 % of control

C/C(=C/c1cc(Br)c(O)c(Br)c1)[N+](=O)[O-]
inactive: [21] 100 % of control | [22] 110 % of control and 90 % of control | dose: 12.5 mg/kg/injection, schedule: Q04DX003 (ip), vehicle: saline 106 % of control | [23] 109 % of control and 90 % of control | dose: 25.0 mg/kg/injection, schedule: Q04DX003 (ip), vehicle: saline 100 % of control | dose: 50.0 mg/kg/injection, schedule: Q04DX003 (ip), vehicle: saline 100 % of control | [12] 90 % of control | [24] 98 % of control

S=C(Nc1ccccc1)P(c1ccccc1)c1ccccc1
inactive: [9] 111 % of control and 99 % of control | [10] 116 % of control and 89 % of control | [20] 111 % of control and 89 % of control

S=C(N=Nc1ccccc1)NNc1ccccc1
inactive: dose: 12.5 mg/kg/injection, schedule: Q01DX009 (ip), vehicle: saline with Tween-80 100 % of control | [5] 95 % of control | [2] 90 % of control | [24] 90 % of control | dose: 200.0 mg/kg/injection, schedule: Q04DX003 (ip), vehicle: saline with Tween-80 86 % of control | dose: 400.0 mg/kg/injection, schedule: Q04DX003 (ip), vehicle: saline with Tween-80 100 % of control

CN1CCN(CN2C(=O)C3C4C=CC(C3C2=O)C2C(=O)N(CN3CCN(C)CC3)C(=O)C42)CC1 (configuration not stated)
inactive: [22] 108 % of control | [23] 105 % of control | [11] 108 % of control | [12] 113 % of control | [13] 122 % of control

CCOC(=O)N1CCN(c2ccc(/C=C\c3cccc(/C=C\c4ccc(N5CCN(C(=O)OCC)CC5)cc4)[n+]3C)cc2)CC1
inactive: dose: 3.12 mg/kg/injection, schedule: Q01DX009 (ip), vehicle: saline 118 % of control | [21] 111 % of control
